The target of data set [1] is MMP-2 (Homo sapiens (Human), UniProt P08253). The experiment in a line: In vitro fluorescence assay of MMP-2 activity. The format is biochemical. Particulars: read-out: MMP2 IC50. The text has this: In Vitro Fluorescence Assay of MMP-2 Activity
(§1) A continuous assay is used in which the substrate is a synthetic peptide containing a fluorescent group (7-methoxycoumarin, Mca), which is quenched by energy transfer to a 2,4-dinitrophenyl group. The substrate is the peptide Mca-PQGL-(3-[2,4-dinitrophenyl]-L-2,3-diaminopropionyl)-AR-OH. When the peptide is cleaved by MMP a large increase in fluorescence is observed. The source of the enzyme for this assay is full-length, recombinant, human pro-MMP-2 expressed in Chinese Hamster Ovary (CHO) cells that is subsequently activated by an organomercurial compound, 4-aminophenyl mercuric acetate (APMA). APMA is removed through a desalting column (MMP-2 Calbiochem® catalog number PF023). The assay buffer consists of 100 mM Tris-HCl (pH 7.5), 100 mM NaCl, 10 mM CaCl2 and 10 μM human serum albumin Each well of the 96-well plates consists of a 100 μL reaction mixture consisting of assay buffer, MMP (final concentration of 0.2 nM, prepared by diluting in assay buffer), and varied concentrations of inhibitor (prepared by serially diluting a given inhibitor in DMSO in a 96-well polypropylene plate using a 10 point or 11 point dilution scheme). The enzymatic reactions are initiated by adding the substrate to a final concentration of 20 μM. The final DMSO concentration in the assay is 1.0%. The plate is incubated for 2-4 hours at room temperature and substrate cleavage is determined at room temperature with a fluorescence plate reader (excitation filter 320 and emission filter 436) on a LJL Analyst® or a Wallac Envision®.
(§2) The data is analyzed by using ActivityBase® software programs vs. 5.3 using a 4 parameter fit model equation 205 from which relative IC50's are generated. Maximum signal is calculated from wells untreated by inhibitor but having enzyme, substrate and 1.0% DMSO. Minimum signal is calculated from wells having buffer only (no enzyme), substrate, and 1.0% DMSO.

The target in data set [2] is MMP3 (Homo sapiens (Human), UniProt P08254). In words: In vitro fluorescence assay of MMP3 activity. The format is biochemical.
Sequence of MMP3 (P08254 100-477, species assumed): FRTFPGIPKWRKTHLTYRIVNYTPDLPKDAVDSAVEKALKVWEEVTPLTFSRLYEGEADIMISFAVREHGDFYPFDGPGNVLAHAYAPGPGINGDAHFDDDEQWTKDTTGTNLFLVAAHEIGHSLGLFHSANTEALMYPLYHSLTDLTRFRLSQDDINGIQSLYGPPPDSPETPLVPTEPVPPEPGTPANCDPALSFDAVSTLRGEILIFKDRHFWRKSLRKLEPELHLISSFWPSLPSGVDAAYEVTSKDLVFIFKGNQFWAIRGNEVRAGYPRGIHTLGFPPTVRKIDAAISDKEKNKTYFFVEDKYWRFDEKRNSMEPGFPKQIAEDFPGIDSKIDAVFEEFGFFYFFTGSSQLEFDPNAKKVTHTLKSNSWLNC
Source text: as §1, §2
(§3) Essentially the same procedure is used for the remaining MMP assays as the MMP-2 assay, above, or as known in the art. For example, for MMP-14, the enzyme source is MMP-14 (MT1-MMP) catalytic domain produced by activation of a recombinant soluble proform of the enzyme purified from the periplasm. It consists of amino acid residues Tyr^89 to Gly^265 of mature human MT1-MMP (Calbiochem® catalog number 475935). The final concentration of each well is 0.5 nM instead of 0.2 nM as in MMP-2 assay.

In data set [3] the target is MMP7 (Homo sapiens (Human), UniProt P09237). In words: In vitro fluorescence assay of MMP7 activity. The format is biochemical.
Sequence of MMP7 (P09237 95-267, species assumed): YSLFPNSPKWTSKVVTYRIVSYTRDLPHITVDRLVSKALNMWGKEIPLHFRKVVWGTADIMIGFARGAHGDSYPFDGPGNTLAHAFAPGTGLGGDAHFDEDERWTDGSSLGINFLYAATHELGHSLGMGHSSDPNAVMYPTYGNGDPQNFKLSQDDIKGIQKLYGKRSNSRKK
Source text: as §1, §2, §3

In data set [4] the target is MMP8 (Homo sapiens (Human), UniProt P22894). In words: In vitro fluorescence assay of MMP8 activity. The format is biochemical.
Sequence of MMP8 (P22894 101-467, species assumed): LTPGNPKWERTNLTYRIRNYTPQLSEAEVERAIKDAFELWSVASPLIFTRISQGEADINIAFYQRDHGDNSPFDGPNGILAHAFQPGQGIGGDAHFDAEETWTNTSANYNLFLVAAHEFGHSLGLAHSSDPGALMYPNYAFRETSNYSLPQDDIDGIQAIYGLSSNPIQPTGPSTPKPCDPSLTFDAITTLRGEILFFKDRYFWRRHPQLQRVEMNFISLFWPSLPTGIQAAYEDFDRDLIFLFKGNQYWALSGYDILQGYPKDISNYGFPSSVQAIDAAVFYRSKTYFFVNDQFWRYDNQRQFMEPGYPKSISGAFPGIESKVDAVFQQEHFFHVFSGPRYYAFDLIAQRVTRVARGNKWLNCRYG
Source text: as §1, §2, §3

In data set [5] the target is MMP9 (Homo sapiens (Human), UniProt P14780). In words: In vitro fluorescence assay of MMP9 activity. The format is biochemical.
Sequence of MMP9 (P14780 94-707, species assumed): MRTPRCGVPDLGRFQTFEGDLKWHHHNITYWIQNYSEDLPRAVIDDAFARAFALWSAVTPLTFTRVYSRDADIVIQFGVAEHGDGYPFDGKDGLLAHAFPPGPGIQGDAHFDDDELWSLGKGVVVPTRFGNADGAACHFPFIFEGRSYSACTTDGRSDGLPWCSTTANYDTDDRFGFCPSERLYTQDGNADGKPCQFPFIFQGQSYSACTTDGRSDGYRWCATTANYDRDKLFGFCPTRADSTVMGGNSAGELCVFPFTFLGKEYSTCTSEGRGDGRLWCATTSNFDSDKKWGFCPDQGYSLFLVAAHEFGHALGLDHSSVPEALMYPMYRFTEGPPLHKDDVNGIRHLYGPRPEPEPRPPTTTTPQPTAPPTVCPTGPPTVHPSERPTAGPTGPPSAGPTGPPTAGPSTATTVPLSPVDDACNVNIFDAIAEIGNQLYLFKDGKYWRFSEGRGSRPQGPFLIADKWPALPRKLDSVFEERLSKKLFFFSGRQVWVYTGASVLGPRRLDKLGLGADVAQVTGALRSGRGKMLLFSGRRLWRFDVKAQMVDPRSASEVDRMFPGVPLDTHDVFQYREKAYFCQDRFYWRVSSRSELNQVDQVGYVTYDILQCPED
Source text: as §1, §2, §3

Data set [6] concerns the target MMP12 (Homo sapiens (Human), UniProt P39900). In words: In vitro fluorescence assay of MMP12 activity. The format is biochemical.
Source text: as §1, §2, §3

Data set [7] addresses MMP13 (Homo sapiens (Human), UniProt P45452). The experiment in a line: In vitro fluorescence assay of MMP13 activity. The format is biochemical. How it is done:
A continuous assay is used in which the substrate is a synthetic peptide containing a fluorescent group (7-methoxycoumarin, Mca), which is quenched by energy transfer to a 2,4-dinitrophenyl group. The substrate is the peptide Mca-PQGL-(3-[2,4-dinitrophenyl]-L-2,3-diaminopropionyl)-AR-OH. […] APMA is removed through a desalting column (MMP-2 Calbiochem® catalog number PF023). The assay buffer consists of 100 mM Tris-HCl (pH 7.5), 100 mM NaCl, 10 mM CaCl2 and 10 μM human serum albumin Each well of the 96-well plates consists of a 100 μL reaction mixture consisting of assay buffer, MMP (final concentration of 0.2 nM, prepared by diluting in assay buffer), and varied concentrations of inhibitor (prepared by serially diluting a given inhibitor in DMSO in a 96-well polypropylene plate using a 10 point or 11 point dilution scheme). The enzymatic reactions are initiated by adding the substrate to a final concentration of 20 μM. The final DMSO concentration in the assay is 1.0%.
as §2, §3

For data set [8], the target named is MMP-14 (MT1-MMP) catalytic domain (Homo sapiens (Human), UniProt P50281). The experiment in a line: In vitro fluorescence assay of MMP-14 activity. The format is biochemical. As to conditions: read-out: MMP14 IC50.
Source text: as §1, §2, §3

For data set [9], the system named is aggrecanase-cleaved fragments of aggrecan (NITEGE) in synovial lavage. The experiment in a line: MIA injection PD model in rats. As to conditions: twice a day, rat. The format is in vivo, Lewis rats. The method, then: MIA Injection PD Model in Rats
The assay as described in Swearingen et al., Osteoarthritis and Cartilage 18 (2010) 1159-1166, may be employed. MIA (Sigma, catalog #I2512, sodium salt) is prepared fresh on the day of use at 3 mg in 50 ul sterile 0.9% saline. 7-8-week-old male Lewis rats are anesthetized and injected intra-articularly with MIA into the right knee (to induce endogenous aggrecanase activity and the release of aggrecan fragments into the synovial fluid) and saline in the left (contralateral) knee on day 0. […] The synovial lavage is assayed for aggrecanase-cleaved fragments of aggrecan using the NITEGE sandwich ELISA. The amount of aggrecan fragments present in the synovial lavage is determined based on a standard curve generated with aggrecanase-digested rat aggrecan. Statistical analysis is performed using Dunnett's test. Sandwich ELISA assay: For the NITEGE ELISA, the a-NITEGE monoclonal antibody is immobilized on white high binding ELISA plates (Nunc) overnight at 4 C. Following blocking, rat synovial fluid lavage samples are added to the plate and fragments with a C-terminal NITEGE sequence are captured. The captured fragments are detected using the HRP-conjugated a-HABR monoclonal antibody. The ELISA signal is measured using the Supersignal ELISA femto maximum sensitivity substrate (Pierce) and read on a Victor luminometer. The amount of aggrecan fragments present in the sample is determined based on a standard curve generated with aggrecanase-digested rat chondrosarcoma aggrecan (850 mg/ml stock diluted in antibody dilution buffer).

Data set [10] deals with ADAMTS-4 (Homo sapiens (Human), UniProt O75173). The experiment in a line: ADAMTS-4 AlphaScreen assay. The format is biochemical. Particulars: buffer. The method, then: ADAMTS-4 and ADAMTS-5 AlphaScreen Assay:
(§4) The plate is covered with aluminum foil tape and the binding is allowed to incubate overnight. The plate is then read on an AlphaScreen Fusion Alpha reader from Perkin Elmer. Data is analyzed using ActivityBase™ software (IDBS Alameda, Calif.). A similar assay is used with purified dog ADAMTS-4 enzyme.
Background: In Alpha technology, singlet oxygen from a donor bead excites a nearby acceptor bead.

Data set [11] concerns the target T1, dog ADAMTS-4 (Canis lupus familiaris, UniProt A0A8I3Q3A2). The experiment in a line: Dog ADAMTS-4 AlphaScreen assay. The format is biochemical. Particulars: purified dog ADAMTS-4 enzyme. How it is done:
as §4

Data set [12] deals with T1, dog ADAMTS-4. The experiment in a line: Dog plasma shift AlphaScreen assay. The format is biochemical. Particulars: dog ADAMTS-4 in 25% dog plasma. How it is done: Rat and Dog Plasma Shift AlphaScreen Assay
The assay is completed in the same manner using 10 nM ADAMTS-5 instead of 2.1 nM. A similar assay is used with dog ADAMTS-4 in the presence of 25% dog plasma.

Data set [13] deals with MMP1 (Homo sapiens (Human), UniProt P03956). The experiment in a line: In vitro fluorescence assay of MMP1 activity. The format is biochemical.
Sequence of MMP1 (P03956 100-469, species assumed): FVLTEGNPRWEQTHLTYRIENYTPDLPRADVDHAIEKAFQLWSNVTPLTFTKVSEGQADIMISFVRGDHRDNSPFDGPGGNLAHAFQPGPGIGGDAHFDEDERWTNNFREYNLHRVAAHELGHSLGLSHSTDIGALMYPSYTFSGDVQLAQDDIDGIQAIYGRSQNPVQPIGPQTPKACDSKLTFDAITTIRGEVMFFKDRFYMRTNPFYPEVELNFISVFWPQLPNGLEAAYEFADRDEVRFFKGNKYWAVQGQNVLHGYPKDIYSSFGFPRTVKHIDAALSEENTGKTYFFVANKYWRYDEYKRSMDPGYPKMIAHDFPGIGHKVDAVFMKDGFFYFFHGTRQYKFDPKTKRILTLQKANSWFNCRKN
Source text: as §1, §2, §3

Data set [14] has as its system plasma ARGN. The experiment in a line: Plasma biomarker ARGN in osteoarthritis dogs. The format is in vivo, Beagle dogs. As to conditions: OA dogs. The text has this:
Study of the Plasma Biomarker ARGN in Osteoarthritis Dogs
The objective of this study is to determine the plasma biomarker ARGN response in osteoarthritic (OA) dogs to a compound of the invention across a range of doses following daily oral administration for 21 days. Sixteen (16) adult laboratory Beagle dogs ≧8 years of age with radiographic evidence of OA in the hip joint(s) and 4 age matched control Beagle dogs without OA are enrolled in the study.
(§5) Blood samples for baseline plasma ARGN concentrations are collected from all dogs on 30, 28, and 26 days to prior to beginning dose administration. […] The 4 age matched control dogs without OA all are assigned to the placebo treatment group.

Data set [15] in a line: Example 2 compound plasma concentration in osteoarthritis dogs (LC-MS/MS). The format is in vivo, Beagle dogs.
Source text: as §5

Sequence of MMP-2 (P08253 110-660): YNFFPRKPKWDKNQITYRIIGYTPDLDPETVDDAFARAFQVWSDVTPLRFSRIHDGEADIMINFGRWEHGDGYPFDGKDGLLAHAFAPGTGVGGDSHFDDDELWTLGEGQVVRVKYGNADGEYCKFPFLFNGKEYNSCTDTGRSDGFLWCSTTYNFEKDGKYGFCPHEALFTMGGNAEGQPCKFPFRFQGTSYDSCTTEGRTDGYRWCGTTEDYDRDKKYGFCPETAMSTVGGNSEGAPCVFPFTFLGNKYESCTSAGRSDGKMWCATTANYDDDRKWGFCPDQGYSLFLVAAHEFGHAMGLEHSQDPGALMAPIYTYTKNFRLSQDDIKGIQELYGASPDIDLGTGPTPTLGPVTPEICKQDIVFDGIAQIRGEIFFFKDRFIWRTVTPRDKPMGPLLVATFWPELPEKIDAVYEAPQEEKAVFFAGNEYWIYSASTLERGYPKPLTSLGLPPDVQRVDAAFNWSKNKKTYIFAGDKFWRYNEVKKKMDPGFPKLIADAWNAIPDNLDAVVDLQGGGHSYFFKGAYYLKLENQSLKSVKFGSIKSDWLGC
Sequence of ADAMTS-4 (O75173 213-837, species assumed): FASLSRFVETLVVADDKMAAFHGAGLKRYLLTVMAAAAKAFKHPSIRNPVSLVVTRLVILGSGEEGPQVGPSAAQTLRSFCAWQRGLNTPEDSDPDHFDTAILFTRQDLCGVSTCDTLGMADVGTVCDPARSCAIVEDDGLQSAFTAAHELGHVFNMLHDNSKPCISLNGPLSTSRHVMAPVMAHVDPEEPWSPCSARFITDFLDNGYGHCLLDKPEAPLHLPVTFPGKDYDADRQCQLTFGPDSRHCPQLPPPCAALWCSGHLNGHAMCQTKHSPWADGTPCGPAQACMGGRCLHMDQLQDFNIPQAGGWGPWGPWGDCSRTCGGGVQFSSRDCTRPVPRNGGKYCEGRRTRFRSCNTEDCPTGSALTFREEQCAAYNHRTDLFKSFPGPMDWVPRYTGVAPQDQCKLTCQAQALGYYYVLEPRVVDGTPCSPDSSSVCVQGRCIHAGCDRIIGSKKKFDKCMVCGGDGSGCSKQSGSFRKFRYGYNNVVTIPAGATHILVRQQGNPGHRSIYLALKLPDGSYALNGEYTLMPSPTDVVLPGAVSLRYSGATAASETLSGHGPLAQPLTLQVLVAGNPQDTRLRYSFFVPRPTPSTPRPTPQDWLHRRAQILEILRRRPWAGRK
Sequence of MMP12 (P39900 106-470, species assumed): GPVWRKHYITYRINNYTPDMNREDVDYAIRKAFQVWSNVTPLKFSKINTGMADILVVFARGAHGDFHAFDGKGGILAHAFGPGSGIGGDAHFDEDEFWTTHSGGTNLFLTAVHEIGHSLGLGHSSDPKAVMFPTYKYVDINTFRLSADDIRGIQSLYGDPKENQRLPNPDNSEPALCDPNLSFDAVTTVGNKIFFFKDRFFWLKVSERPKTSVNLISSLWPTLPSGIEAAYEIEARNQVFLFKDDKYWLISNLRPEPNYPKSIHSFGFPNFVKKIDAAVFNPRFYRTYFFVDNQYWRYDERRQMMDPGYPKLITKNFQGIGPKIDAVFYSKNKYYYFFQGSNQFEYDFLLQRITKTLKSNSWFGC
T1 sequence (A0A8I3Q3A2 1-992): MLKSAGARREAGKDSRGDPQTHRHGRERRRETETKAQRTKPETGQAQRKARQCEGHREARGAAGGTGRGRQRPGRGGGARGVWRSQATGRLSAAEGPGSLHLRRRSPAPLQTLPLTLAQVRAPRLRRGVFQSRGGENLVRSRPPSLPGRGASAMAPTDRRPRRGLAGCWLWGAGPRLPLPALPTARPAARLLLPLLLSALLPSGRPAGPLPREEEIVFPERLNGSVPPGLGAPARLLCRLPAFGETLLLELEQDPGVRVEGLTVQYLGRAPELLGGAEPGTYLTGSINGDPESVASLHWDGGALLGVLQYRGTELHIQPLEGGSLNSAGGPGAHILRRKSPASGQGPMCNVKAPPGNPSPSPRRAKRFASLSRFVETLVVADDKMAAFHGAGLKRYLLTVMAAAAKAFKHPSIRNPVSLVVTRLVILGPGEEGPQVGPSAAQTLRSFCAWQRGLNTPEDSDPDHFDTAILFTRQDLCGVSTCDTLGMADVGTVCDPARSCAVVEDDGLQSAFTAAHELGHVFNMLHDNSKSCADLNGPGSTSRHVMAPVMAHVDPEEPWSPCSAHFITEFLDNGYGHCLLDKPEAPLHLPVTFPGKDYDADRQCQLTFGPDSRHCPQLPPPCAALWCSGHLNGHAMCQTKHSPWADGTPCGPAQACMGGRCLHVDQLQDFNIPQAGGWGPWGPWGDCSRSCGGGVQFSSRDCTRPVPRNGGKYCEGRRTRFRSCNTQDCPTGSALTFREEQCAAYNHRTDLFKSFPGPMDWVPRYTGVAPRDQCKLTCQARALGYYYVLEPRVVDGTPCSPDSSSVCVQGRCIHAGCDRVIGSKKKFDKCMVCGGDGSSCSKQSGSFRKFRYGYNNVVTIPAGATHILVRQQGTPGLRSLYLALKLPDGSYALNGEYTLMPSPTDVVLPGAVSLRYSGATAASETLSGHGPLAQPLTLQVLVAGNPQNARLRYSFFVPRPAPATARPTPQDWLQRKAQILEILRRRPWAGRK

As to `C[C@H](Cc1ccc(C(F)(F)F)cc1)C(=O)NC[C@@]1(C2CC2)NC(=O)NC1=O` [Example 1, (2R)—N-[[(4R)-4-cyclopropyl-2,5-dioxo-imidazolidin-4-yl]methyl]-2-methyl-3-[4-(trifluoromethyl)phenyl]propanamide], the IC50 (commonly the concentration needed to halve the response being measured) in data set [1] is 1.75 µM; in [2], 2.85 µM; in data set [3] it was over 100 µM; in data set [4] it was 0.0179 µM; in data set [5] it was 12 µM; in [6], 0.009 µM. For the same compound, the IC50 in [7] was found to be 1.11 µM; in data set [8] it was 3.89 µM. Besides, the results for the “% Inhibition” value in data set [9] (10 MPK oral), in data set [9] (30 MPK oral) and in data set [9] (100 MPK oral) were 41.3%, 48.2% and 70.2%, respectively. Moreover, the “MIA (aggrecan fragments in synovial lavage of MIA knee)” value in data set [9] (10 MPK oral) came to 15.87; in data set [9] (30 MPK oral), 14.00; in data set [9] (100 MPK oral), 8.06.
Regarding `CC[C@H](Cc1ccc(C(F)(F)F)cc1)C(=O)NC[C@@]1(C2CC2)NC(=O)NC1=O` [Example 2, (2R)—N-[[(4R)-4-cyclopropyl-2,5-dioxo-imidazolidin-4-yl]methyl]-2-[[4-(trifluoromethyl)phenyl]methyl]butanamide], the IC50 in data set [10] turned out to be 0.002 µM; in data set [11] it was 0.001 µM; in [12], 0.326 µM; in [13], 0.897 µM; in data set [1], 0.704 µM; in [2], 15.3 µM. Further, the IC50 in [3] was over 100 µM; in data set [4] it was under 0.0051 µM; in [5], 0.439 µM; in [6], 0.026 µM; in data set [7] it was 4.19 µM; in data set [8], 7.99 µM. For the same compound, the “mean Day 21 inhibition of plasma ARGN concentrations” value in data set [14] (0.1 mg/kg daily oral) is 33.8%; in [14] (1 mg/kg daily oral), 70.7%; in data set [14] (10 mg/kg daily oral), 80.3%. In [15] (0.1, 1, 10 mg/kg daily oral), the “plasma concentrations versus dosage” value is given as “increase with dosage in a sub-proportional manner”. Also, the steady-state trough concentrations result in data set [15] (daily oral dosing) is listed as “rapidly achieved”.
In the case of `O=C1NC(=O)[C@](CNC(=O)[C@@H](Cc2ccc(C(F)(F)F)cc2)C2CC2)(C2CC2)N1` [Example 3, (2S)-2-cyclopropyl-N-[[(4R)-4-cyclopropyl-2,5-dioxo-imidazolidin-4-yl]methyl]-3-[4-(trifluoromethyl)phenyl]propanamide], the IC50 was 39.2 µM in data set [13]; 35 µM in data set [1]; 99.7 µM in data set [2]; over 100 µM in data set [3]; 0.804 µM in data set [4]; over 100 µM in [5]. The values for the IC50 in data set [6], in [7] and in data set [8] were 0.268 µM, 47 µM and 50.2 µM, respectively.
Turning to `CC(C)[C@H](Cc1ccc(C(F)(F)F)cc1)C(=O)NC[C@@]1(C2CC2)NC(=O)NC1=O` [Example 4, (2S)—N-[[(4R)-4-cyclopropyl-2,5-dioxo-imidazolidin-4-yl]methyl]-3-methyl-2-[[4-(trifluoromethyl)phenyl]methyl]butanamide], the IC50 in [10] was 0.014 µM; in data set [13] it was 56.8 µM; in data set [1], over 100 µM; in [2], over 100 µM; in [3], over 100 µM; in data set [4] it was 5.22 µM. The IC50 in [5] was over 100 µM; in data set [6], 3.37 µM; in data set [7] it was over 100 µM; in data set [8] it was over 100 µM.
Turning to `CC(C)(Cc1ccc(C(F)(F)F)cc1)C(=O)NC[C@@]1(C2CC2)NC(=O)NC1=O` [Example 5, N-[[(4R)-4-cyclopropyl-2,5-dioxoimidazolidin-4-yl]methyl]-2,2-dimethyl-3-[4-(trifluoromethyl)phenyl]propanamide], the IC50 was 0.007 µM in [10]; 4.55 µM in [13]; 4.65 µM in data set [1]; 13.2 µM in data set [2]; over 100 µM in [3]; 0.054 µM in data set [4]. In addition, the IC50 was 7.59 µM in data set [5], 0.071 µM in data set [6], 4.81 µM in [7] and 14.9 µM in data set [8].

These data come from patent US9206139B2, “Aggrecanase inhibitors” (Eli Lilly and Company, priority 2012, dated 2015).
